Reference: ChEMBL document CHEMBL1201862, “PubChem BioAssay data set” (2004)
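Five concentrations, 48 hours, 96-well plates. GI50 is the concentration that inhibits growth by half.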 Calls of active or inactive are those of the source. No stated cut-off is given here; in the data, active = GI50 up to about 1.1 µM and inactive = higher.

Assays:
Experiment in all cases: NCI-60 cell line screen, 48 h
UACC-257 = system: UACC-257
KM12 = system: KM12
SNB-75 = system: SNB-75
MDA-MB-435 = system: MDA-MB-435
MDA-MB-231 = system: MDA-MB-231
OVCAR-8 = system: OVCAR-8
SF-295 = system: SF-295
CCRF-CEM = system: CCRF-CEM
SK-MEL-28 = system: SK-MEL-28
T47D = system: T47D
HL-60 = system: HL-60
SF-539 = system: SF-539
OVCAR-3 = system: OVCAR-3
K562 = system: K562
786-0 = system: 786-0
IGROV-1 = system: IGROV-1
PC-3 = system: PC-3
UACC-62 = system: UACC-62
OVCAR-5 = system: OVCAR-5
RPMI-8226 = system: RPMI-8226

| SMILES | GI50 (UACC-257) | GI50 (KM12) | GI50 (SNB-75) | GI50 (MDA-MB-435) | GI50 (MDA-MB-231) | GI50 (OVCAR-8) | GI50 (SF-295) | GI50 (CCRF-CEM) | GI50 (SK-MEL-28) | GI50 (T47D) | GI50 (HL-60) | GI50 (SF-539) | GI50 (OVCAR-3) | GI50 (K562) | GI50 (786-0) | GI50 (IGROV-1) | GI50 (PC-3) | GI50 (UACC-62) | GI50 (OVCAR-5) | GI50 (RPMI-8226) |
| --- | --- | --- | --- | --- | --- | --- | --- | --- | --- | --- | --- | --- | --- | --- | --- | --- | --- | --- | --- | --- |
| Nc1cnc(Nc2cccc3ccccc23)o1 | > 10 µM (inactive) | > 10 µM (inactive) | > 10 µM (inactive) | > 10 µM (inactive) | > 10 µM (inactive) | > 10 µM (inactive) | > 10 µM (inactive) | > 10 µM (inactive) | > 10 µM (inactive) | > 10 µM (inactive) | > 10 µM (inactive) | > 10 µM (inactive) | > 10 µM (inactive) | > 10 µM (inactive) | > 10 µM (inactive) | > 10 µM (inactive) | > 10 µM (inactive) | > 10 µM (inactive) | – | – |
| O=C1C=CC2(C=C1)O[C@H](COCc1ccccc1)[C@@H](COCc1ccccc1)O2 | 1.62 µM (inactive) | 3.49 µM (inactive) | 4.54 µM (inactive) | 2.27 µM (inactive) | 3.65 µM (inactive) | 0.305 µM (active) | 16 µM (inactive) | – | 1.8 µM (inactive) | 2.04 µM (inactive) | 2.59 µM (inactive) | 1.97 µM (inactive) | 2.37 µM (inactive) | 2.25 µM (inactive) | 0.627 µM (active) | 1.61 µM (inactive) | 2.13 µM (inactive) | 1.88 µM (inactive) | 1.55 µM (inactive) | 0.42 µM (active) |
| C/C(=N\C1CCCCC1)c1ccccc1O | > 100 µM (inactive) | > 100 µM (inactive) | 57.5 µM (inactive) | > 100 µM (inactive) | > 100 µM (inactive) | > 100 µM (inactive) | > 100 µM (inactive) | 54 µM (inactive) | > 100 µM (inactive) | > 100 µM (inactive) | 56.1 µM (inactive) | > 100 µM (inactive) | – | > 100 µM (inactive) | > 100 µM (inactive) | > 100 µM (inactive) | > 100 µM (inactive) | > 100 µM (inactive) | > 100 µM (inactive) | 87.5 µM (inactive) |
| CCCCCCCCCCCCCCCCNc1nc(=O)n(C2OC(C)C(O)C2O)cc1F (stereo not drawn) | 20.5 µM (inactive) | 17.4 µM (inactive) | 18.5 µM (inactive) | 15.5 µM (inactive) | 20.7 µM (inactive) | 21.8 µM (inactive) | 20.8 µM (inactive) | 16.3 µM (inactive) | 19.2 µM (inactive) | 21.1 µM (inactive) | 14.5 µM (inactive) | 18.2 µM (inactive) | 17.5 µM (inactive) | – | 19.9 µM (inactive) | 17.6 µM (inactive) | 13.2 µM (inactive) | 15.6 µM (inactive) | 20.6 µM (inactive) | 10.6 µM (inactive) |
| OCCNc1ncnc2c1ncn2C1OC(CO)C(O)C1O (stereo not drawn) | > 100 µM (inactive) | > 100 µM (inactive) | > 100 µM (inactive) | > 100 µM (inactive) | 25.5 µM (inactive) | 35 µM (inactive) | > 100 µM (inactive) | 30.3 µM (inactive) | > 100 µM (inactive) | > 100 µM (inactive) | 33.1 µM (inactive) | > 100 µM (inactive) | 52.1 µM (inactive) | – | > 100 µM (inactive) | > 100 µM (inactive) | 47.4 µM (inactive) | > 100 µM (inactive) | > 100 µM (inactive) | 85.7 µM (inactive) |
| CCOC(=O)c1[nH]c(Br)c(-c2ccc(OC)c(OC)c2)c1Br | 0.00386 µM (active) | 0.0303 µM (active) | 0.0259 µM (active) | 0.0091 µM (active) | 0.321 µM (active) | 0.0423 µM (active) | 0.00975 µM (active) | 0.0173 µM (active) | 0.0562 µM (active) | 21 µM (inactive) | 0.0679 µM (active) | – | 0.0163 µM (active) | 0.0121 µM (active) | 0.0334 µM (active) | 0.0552 µM (active) | 0.0356 µM (active) | 0.0418 µM (active) | 5.27 µM (inactive) | 0.01 µM (active) |
